Laboratory results reported in ChEMBL document CHEMBL5131499, “Design, synthesis and glycosidase inhibition of C-4 branched LAB and DAB derivatives” (Eur J Med Chem, 2022).
Blank lines part the entries; values can stand above or below the molecule they belong to.

Assays:
Prunus dulcis = experiment: Inhibition of almond beta-glucosidase assessed as release of p-nitrophenol at 1000 uM using p-nitrophenyl glycoside as substrate by spectrometric assay relative to control
Bos taurus [1] = species: Bos taurus; experiment: Inhibition of bovine liver beta-glucosidase assessed as release of p-nitrophenol at 1000 uM using p-nitrophenyl glycoside as substrate by spectrometric assay relative to control
[2] = molecular target: T1, Lysosomal alpha-glucosidase (Homo sapiens, UniProt P10253); experiment: Inhibition of human lysosomal alpha glucosidase assessed as release of p-nitrophenol using p-nitrophenyl glycoside as substrate by spectrometric assay
Helix pomatia = experiment: Inhibition of snail beta-mannosidase assessed as release of p-nitrophenol at 1000 uM using p-nitrophenyl glycoside as substrate by spectrometric assay relative control
[3] = molecular target: Alpha-galactosidase (Coffea arabica) (UniProt Q42656); experiment: Inhibition of coffee beans alpha-galactosidase assessed as release of p-nitrophenol at 1000 uM using p-nitrophenyl glycoside as substrate by spectrometric assay relative to control
Chain of Alpha-galactosidase (Coffea arabica) (Q42656 16-378 limits assumed): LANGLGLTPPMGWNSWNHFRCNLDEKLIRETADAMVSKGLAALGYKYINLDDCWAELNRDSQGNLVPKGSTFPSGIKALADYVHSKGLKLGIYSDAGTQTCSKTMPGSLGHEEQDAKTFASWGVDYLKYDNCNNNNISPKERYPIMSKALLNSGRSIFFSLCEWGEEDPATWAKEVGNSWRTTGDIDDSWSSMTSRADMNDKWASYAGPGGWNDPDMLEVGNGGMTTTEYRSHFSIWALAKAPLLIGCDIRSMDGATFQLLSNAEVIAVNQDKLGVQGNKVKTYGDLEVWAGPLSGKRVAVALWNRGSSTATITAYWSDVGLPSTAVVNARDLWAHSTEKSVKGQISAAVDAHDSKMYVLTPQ

[4] = molecular target: T2, Alpha-mannosidase (Canavalia ensiformis) (UniProt C0HJB3); experiment: Inhibition of jack bean alpha-mannosidase assessed as release of p-nitrophenol at 1000 uM using p-nitrophenyl glycoside as substrate by spectrometric assay relative to control
T2 sequence (whole entry): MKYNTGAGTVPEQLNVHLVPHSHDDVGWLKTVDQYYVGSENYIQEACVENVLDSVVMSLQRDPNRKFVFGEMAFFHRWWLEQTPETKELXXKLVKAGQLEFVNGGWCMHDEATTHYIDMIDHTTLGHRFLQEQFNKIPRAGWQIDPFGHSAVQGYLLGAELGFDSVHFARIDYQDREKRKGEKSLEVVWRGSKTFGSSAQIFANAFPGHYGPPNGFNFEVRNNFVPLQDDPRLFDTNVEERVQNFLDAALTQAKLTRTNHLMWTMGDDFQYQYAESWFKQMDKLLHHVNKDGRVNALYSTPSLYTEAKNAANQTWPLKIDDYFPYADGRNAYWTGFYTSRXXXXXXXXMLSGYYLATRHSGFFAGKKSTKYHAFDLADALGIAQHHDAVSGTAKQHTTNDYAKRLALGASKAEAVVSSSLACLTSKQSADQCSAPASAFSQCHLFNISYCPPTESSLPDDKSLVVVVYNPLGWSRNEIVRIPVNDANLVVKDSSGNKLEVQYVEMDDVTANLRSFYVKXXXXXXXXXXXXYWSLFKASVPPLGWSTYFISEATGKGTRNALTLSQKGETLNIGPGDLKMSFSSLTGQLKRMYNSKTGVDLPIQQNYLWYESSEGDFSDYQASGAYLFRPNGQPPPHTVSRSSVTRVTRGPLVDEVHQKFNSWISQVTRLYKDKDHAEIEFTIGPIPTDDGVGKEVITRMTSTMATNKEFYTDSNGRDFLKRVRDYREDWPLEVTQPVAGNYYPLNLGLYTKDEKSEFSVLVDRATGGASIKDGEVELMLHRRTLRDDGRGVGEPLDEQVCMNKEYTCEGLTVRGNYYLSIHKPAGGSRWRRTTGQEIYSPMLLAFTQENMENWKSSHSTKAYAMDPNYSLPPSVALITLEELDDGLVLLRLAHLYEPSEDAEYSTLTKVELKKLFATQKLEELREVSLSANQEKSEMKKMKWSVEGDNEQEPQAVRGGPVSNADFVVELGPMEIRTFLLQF

[5] = Inhibition of rice alpha-glucosidase assessed as release of p-nitrophenol using p-nitrophenyl glycoside as substrate by spectrometric assay; set-up: species or system Oryza sativa
[6] = molecular target: T3, Tissue alpha-L-fucosidase (Bos taurus) (UniProt Q2KIM0); experiment: Inhibition of bovine kidney alpha-L-fucosidase assessed as release of p-nitrophenol at 1000 uM using p-nitrophenyl glycoside as substrate by spectrometric assay relative to control
T3 sequence (whole entry): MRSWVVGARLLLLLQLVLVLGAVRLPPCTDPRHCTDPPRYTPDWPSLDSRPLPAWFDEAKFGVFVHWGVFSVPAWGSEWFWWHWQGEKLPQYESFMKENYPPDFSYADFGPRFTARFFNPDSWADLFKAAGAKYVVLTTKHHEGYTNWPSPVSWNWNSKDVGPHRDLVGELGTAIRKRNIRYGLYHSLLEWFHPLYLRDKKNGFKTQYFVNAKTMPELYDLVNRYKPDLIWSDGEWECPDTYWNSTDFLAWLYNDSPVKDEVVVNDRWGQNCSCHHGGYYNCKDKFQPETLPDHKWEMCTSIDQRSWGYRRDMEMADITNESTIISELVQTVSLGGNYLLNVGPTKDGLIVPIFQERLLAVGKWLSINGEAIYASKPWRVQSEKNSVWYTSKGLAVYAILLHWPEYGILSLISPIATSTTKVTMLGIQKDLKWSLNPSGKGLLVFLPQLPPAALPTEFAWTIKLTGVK

Bos taurus [7] = species: Bos taurus; experiment: Inhibition of bovine liver beta-glucronidase assessed as release of p-nitrophenol at 1000 uM using p-nitrophenyl glycoside as substrate by spectrometric assay relative to control
Rattus norvegicus = species: Rattus norvegicus; experiment: Inhibition of rat intestinal alpha-trehalase assessed as release of p-nitrophenol at 1000 uM using p-nitrophenyl glycoside as substrate by spectrometric assay relative to control
Sus scrofa = species: Sus scrofa; experiment: Inhibition of porcine kidney alpha-trehalase assessed as release of p-nitrophenol at 1000 uM using p-nitrophenyl glycoside as substrate by spectrometric assay relative to control
[8] = Inhibition of yeast alpha-glucosidase assessed as release of p-nitrophenol using p-nitrophenyl glycoside as substrate by spectrometric assay; set-up: species or system Saccharomyces cerevisiae
Escherichia coli = experiment: Inhibition of Escherichia coli beta-glucuronidase assessed as release of p-nitrophenol at 1000 uM using p-nitrophenyl glycoside as substrate by spectrometric assay relative to control
[9] = molecular target: Sucrase-isomaltase, intestinal (Rattus norvegicus, UniProt P23739); experiment: Inhibition of rat intestinal sucrase assessed as release of p-nitrophenol using p-nitrophenyl glycoside as substrate by spectrometric assay
Chain of Sucrase-isomaltase, intestinal (P23739 1-1013 limits assumed): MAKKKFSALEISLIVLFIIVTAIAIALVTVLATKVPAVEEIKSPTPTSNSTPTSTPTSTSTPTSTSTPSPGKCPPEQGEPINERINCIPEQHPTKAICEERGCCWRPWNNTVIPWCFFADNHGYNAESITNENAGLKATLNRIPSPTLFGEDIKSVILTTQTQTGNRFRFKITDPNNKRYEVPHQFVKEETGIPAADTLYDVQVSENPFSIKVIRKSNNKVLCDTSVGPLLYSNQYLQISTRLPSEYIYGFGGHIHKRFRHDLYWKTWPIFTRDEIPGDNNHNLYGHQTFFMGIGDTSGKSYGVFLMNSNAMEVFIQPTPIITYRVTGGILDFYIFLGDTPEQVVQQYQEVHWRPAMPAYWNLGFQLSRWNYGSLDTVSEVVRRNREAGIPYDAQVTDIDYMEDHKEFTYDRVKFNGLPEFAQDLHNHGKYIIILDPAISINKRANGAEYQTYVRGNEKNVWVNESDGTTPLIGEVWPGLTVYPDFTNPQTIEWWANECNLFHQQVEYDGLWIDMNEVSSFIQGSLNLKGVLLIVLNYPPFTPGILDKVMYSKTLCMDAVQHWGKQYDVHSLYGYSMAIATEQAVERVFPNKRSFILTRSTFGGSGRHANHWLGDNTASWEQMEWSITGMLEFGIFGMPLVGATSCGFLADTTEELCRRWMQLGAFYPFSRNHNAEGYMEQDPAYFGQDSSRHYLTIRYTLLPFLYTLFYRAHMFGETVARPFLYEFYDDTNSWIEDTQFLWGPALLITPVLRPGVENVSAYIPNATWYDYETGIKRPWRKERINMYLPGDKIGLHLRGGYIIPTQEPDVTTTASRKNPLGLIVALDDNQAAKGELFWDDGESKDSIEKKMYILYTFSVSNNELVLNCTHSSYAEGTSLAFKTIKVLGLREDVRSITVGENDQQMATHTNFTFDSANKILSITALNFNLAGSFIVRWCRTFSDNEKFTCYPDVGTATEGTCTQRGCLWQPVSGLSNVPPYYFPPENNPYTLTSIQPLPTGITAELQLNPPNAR
Chain of Sucrase-isomaltase, intestinal (P23739 1014-1841 limits assumed): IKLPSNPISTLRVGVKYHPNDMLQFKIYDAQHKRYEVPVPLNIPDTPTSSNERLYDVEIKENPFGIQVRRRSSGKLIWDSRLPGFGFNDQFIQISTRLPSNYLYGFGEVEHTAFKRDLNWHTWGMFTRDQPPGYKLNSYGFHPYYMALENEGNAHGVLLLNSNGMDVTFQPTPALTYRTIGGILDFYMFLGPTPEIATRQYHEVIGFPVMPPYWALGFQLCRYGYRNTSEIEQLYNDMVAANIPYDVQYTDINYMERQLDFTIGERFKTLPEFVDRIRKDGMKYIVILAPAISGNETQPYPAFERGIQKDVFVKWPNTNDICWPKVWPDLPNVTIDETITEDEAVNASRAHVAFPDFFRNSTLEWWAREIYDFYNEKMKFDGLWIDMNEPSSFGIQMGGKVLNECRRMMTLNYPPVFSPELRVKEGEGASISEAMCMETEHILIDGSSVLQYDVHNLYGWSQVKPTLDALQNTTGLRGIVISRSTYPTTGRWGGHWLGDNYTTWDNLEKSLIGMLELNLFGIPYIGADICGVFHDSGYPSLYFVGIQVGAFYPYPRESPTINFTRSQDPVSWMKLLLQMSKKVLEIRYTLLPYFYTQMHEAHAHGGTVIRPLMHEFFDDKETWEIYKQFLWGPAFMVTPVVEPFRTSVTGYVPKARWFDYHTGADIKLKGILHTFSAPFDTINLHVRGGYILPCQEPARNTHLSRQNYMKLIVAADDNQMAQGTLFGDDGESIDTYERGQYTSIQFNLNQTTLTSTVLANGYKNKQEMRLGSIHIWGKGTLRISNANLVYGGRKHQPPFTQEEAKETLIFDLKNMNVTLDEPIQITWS

Bos taurus [10] = species: Bos taurus; experiment: Inhibition of bovine liver beta-galactosidase assessed as release of p-nitrophenol at 1000 uM using p-nitrophenyl glycoside as substrate by spectrometric assay relative to control
Aspergillus niger = experiment: Inhibition of Aspergillus niger amyloglucosidase assessed as release of p-nitrophenol at 1000 uM using p-nitrophenyl glycoside as substrate by spectrometric assay relative to control
Penicillium decumbens = experiment: Inhibition of Penicillium decumbens alpha-L-rhamnosidase assessed as release of p-nitrophenol at 1000 uM using p-nitrophenyl glycoside as substrate by spectrometric assay relative to control
Oryza sativa = experiment: Inhibition of rice alpha-glucosidase assessed as release of p-nitrophenol at 1000 uM using p-nitrophenyl glycoside as substrate by spectrometric assay relative to control
[11] = molecular target: T1, Lysosomal alpha-glucosidase; experiment: Inhibition of human lysosomal alpha glucosidase assessed as release of p-nitrophenol at 1000 uM using p-nitrophenyl glycoside as substrate by spectrometric assay relative to control

Structure (SMILES): OC[C@@H]1NC[C@H](O)[C@H]1O
inhibition (Prunus dulcis): < 50%
inhibition (Bos taurus [1]): < 50%

Structure (SMILES): Cc1ccc([C@]2(CO)NC[C@@H](O)[C@@H]2O)cc1
inhibition (Oryza sativa): 29.1%
inhibition (Helix pomatia): 0%
inhibition [3]: 1.6%
inhibition [4]: 0%
inhibition [6]: 0%
inhibition (Prunus dulcis): 8.7%
inhibition (Bos taurus [7]): 8.7%
inhibition (Rattus norvegicus): 12.9%
inhibition [11]: 21.3%
inhibition (Sus scrofa): 0%
IC50 [8]: 212 µM
inhibition (Escherichia coli): 0%
inhibition (Bos taurus [1]): 29.1%
IC50 [9]: 3.4 µM
inhibition (Bos taurus [10]): 35%
inhibition (Aspergillus niger): 8.3%
inhibition (Penicillium decumbens): 7.4%

Structure (SMILES): OC[C@]1(c2ccc(F)cc2)NC[C@H](O)[C@H]1O
inhibition (Oryza sativa): 6.4%
inhibition (Helix pomatia): 0%
inhibition [3]: 0%
inhibition [4]: 6.6%
inhibition [6]: 0%
inhibition (Prunus dulcis): 4.6%
inhibition (Bos taurus [7]): 10.9%
inhibition (Rattus norvegicus): 27%
inhibition [11]: 8.3%
inhibition (Sus scrofa): 4%
IC50 [8]: 305 µM
inhibition (Escherichia coli): 3%
inhibition (Bos taurus [1]): 0.4%
IC50 [9]: 2.8 µM
inhibition (Bos taurus [10]): 0%
inhibition (Aspergillus niger): 0%
inhibition (Penicillium decumbens): 0%

Structure (SMILES): COc1ccc([C@@]2(CO)NC[C@H](O)[C@H]2O)cc1OC
inhibition (Oryza sativa): 32.3%
inhibition (Helix pomatia): 0%
inhibition [3]: 0%
inhibition [4]: 0%
inhibition [6]: 0.5%
inhibition (Prunus dulcis): 0%
inhibition (Bos taurus [7]): 23.3%
inhibition (Rattus norvegicus): 0%
inhibition [11]: 27.1%
inhibition (Sus scrofa): 0%
IC50 [8]: 64 µM
inhibition (Escherichia coli): 0%
inhibition (Bos taurus [1]): 15.8%
IC50 [9]: 2.5 µM
inhibition (Bos taurus [10]): 19%
inhibition (Aspergillus niger): 6.4%
inhibition (Penicillium decumbens): 0%

Structure (SMILES): OC[C@@]1(c2ccc(F)cc2)NC[C@@H](O)[C@@H]1O
IC50 [2]: 714 µM
inhibition (Helix pomatia): 0.8%
inhibition [3]: 0%
inhibition [4]: 6.6%
IC50 [5]: 646 µM
inhibition [6]: 0%
inhibition (Prunus dulcis): 0.6%
inhibition (Bos taurus [7]): 16.8%
inhibition (Rattus norvegicus): 25.8%
inhibition (Sus scrofa): 4.4%
IC50 [8]: 70 µM
inhibition (Escherichia coli): 1.5%
inhibition (Bos taurus [1]): 8.4%
IC50 [9]: 0.2 µM
inhibition (Bos taurus [10]): 8.6%
inhibition (Aspergillus niger): 0%
inhibition (Penicillium decumbens): 0%

Structure (SMILES): OC[C@]1(c2cccc(F)c2)NC[C@H](O)[C@H]1O
IC50 [2]: 491 µM
inhibition (Helix pomatia): 0%
inhibition [4]: 0%
IC50 [5]: 817 µM
inhibition [6]: 0%
inhibition (Prunus dulcis): 0%
inhibition (Bos taurus [7]): 19.4%
inhibition (Rattus norvegicus): 10%
inhibition (Sus scrofa): 8.3%
IC50 [8]: 60 µM
inhibition (Escherichia coli): 0%
inhibition (Bos taurus [1]): 11.3%
IC50 [9]: 0.95 µM
inhibition (Bos taurus [10]): 16.4%
inhibition (Aspergillus niger): 1.4%
inhibition (Penicillium decumbens): 0%

Second part, the molecule after the results:

IC50 [2]: 372 µM
inhibition (Helix pomatia): 0%
inhibition [3]: 1.2%
inhibition [4]: 2.2%
IC50 [5]: 337 µM
inhibition [6]: 0%
inhibition (Prunus dulcis): 8.7%
inhibition (Bos taurus [7]): 19.9%
inhibition (Rattus norvegicus): 0%
inhibition (Sus scrofa): 4.5%
IC50 [8]: 64 µM
inhibition (Escherichia coli): 0.4%
inhibition (Bos taurus [1]): 10.8%
IC50 [9]: 0.74 µM
inhibition (Bos taurus [10]): 20.4%
inhibition (Aspergillus niger): 9.2%
inhibition (Penicillium decumbens): 5.5%
Structure (SMILES): OC[C@@]1(c2ccc(O)cc2)NC[C@@H](O)[C@@H]1O

inhibition (Oryza sativa): 0%
inhibition (Helix pomatia): 0%
inhibition [4]: 6.6%
inhibition [6]: 0%
inhibition (Prunus dulcis): 4.6%
inhibition (Bos taurus [7]): 3.6%
inhibition (Rattus norvegicus): 40.2%
inhibition [11]: 6.9%
inhibition (Sus scrofa): 2%
IC50 [8]: 528 µM
inhibition (Escherichia coli): 2.6%
inhibition (Bos taurus [1]): 3.8%
IC50 [9]: 4.1 µM
inhibition (Bos taurus [10]): 3.7%
inhibition (Aspergillus niger): 4.4%
inhibition (Penicillium decumbens): 2%
Structure (SMILES): OC[C@]1(c2c(F)c(F)c(F)c(F)c2F)NC[C@H](O)[C@H]1O

IC50 [2]: 776 µM
inhibition (Helix pomatia): 0%
inhibition [3]: 1.6%
inhibition [4]: 0%
IC50 [5]: 758 µM
inhibition [6]: 0%
inhibition (Prunus dulcis): 7.8%
inhibition (Bos taurus [7]): 10.7%
inhibition (Rattus norvegicus): 0%
inhibition (Sus scrofa): 12.9%
IC50 [8]: 9.8 µM
inhibition (Escherichia coli): 0%
inhibition (Bos taurus [1]): 30%
IC50 [9]: 1.7 µM
inhibition (Bos taurus [10]): 38.9%
inhibition (Aspergillus niger): 8.3%
inhibition (Penicillium decumbens): 0%
Structure (SMILES): COc1cccc([C@]2(CO)NC[C@@H](O)[C@@H]2O)c1

inhibition (Oryza sativa): 11.4%
inhibition (Helix pomatia): 0%
inhibition [3]: 0%
inhibition [4]: 0%
inhibition [6]: 0%
inhibition (Prunus dulcis): 0%
inhibition (Bos taurus [7]): 17.5%
inhibition (Rattus norvegicus): 0%
inhibition [11]: 11.1%
inhibition (Sus scrofa): 0.8%
IC50 [8]: 243 µM
inhibition (Escherichia coli): 0%
inhibition (Bos taurus [1]): 22.2%
IC50 [9]: 4.1 µM
inhibition (Bos taurus [10]): 24.3%
inhibition (Aspergillus niger): 0.5%
inhibition (Penicillium decumbens): 0%
Structure (SMILES): COc1ccc([C@]2(CO)NC[C@@H](O)[C@@H]2O)cc1OC

inhibition (Oryza sativa): 47.3%
inhibition (Helix pomatia): 0%
inhibition [3]: 1.6%
inhibition [4]: 0%
inhibition [6]: 1.6%
inhibition (Prunus dulcis): 1.7%
inhibition (Bos taurus [7]): 8.2%
inhibition (Rattus norvegicus): 0.6%
inhibition [11]: 46%
inhibition (Sus scrofa): 3.8%
IC50 [8]: 19 µM
inhibition (Escherichia coli): 0%
inhibition (Bos taurus [1]): 12.8%
IC50 [9]: 2.2 µM
inhibition (Bos taurus [10]): 26.5%
inhibition (Aspergillus niger): 5%
inhibition (Penicillium decumbens): 5.5%
Structure (SMILES): COc1cccc([C@@]2(CO)NC[C@H](O)[C@H]2O)c1

inhibition (Oryza sativa): 19.5%
inhibition (Helix pomatia): 0%
inhibition [3]: 0%
inhibition [4]: 0%
inhibition [6]: 3.8%
inhibition (Prunus dulcis): 5.2%
inhibition (Bos taurus [7]): 18.4%
inhibition (Rattus norvegicus): 14.1%
inhibition [11]: 18.5%
inhibition (Sus scrofa): 0%
IC50 [8]: 388 µM
inhibition (Escherichia coli): 0%
inhibition (Bos taurus [1]): 33%
IC50 [9]: 2.5 µM
inhibition (Bos taurus [10]): 38.1%
inhibition (Aspergillus niger): 7.8%
inhibition (Penicillium decumbens): 0%
Structure (SMILES): OC[C@@]1(c2c(F)c(F)c(F)c(F)c2F)NC[C@@H](O)[C@@H]1O
